Measurements from PubChem BioAssay (NCI).
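Growth conditions: 96-well plates. Treatment: test compound, 48 hours, 5 concentrations. Analysis: linear interpolation between bracketing concentrations; unreached endpoints set to highest concentration. TGI marks complete inhibition of growth.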

Columns and labels:
Experiment in all cases: DTP human tumour cell line panel, 48 h
CCRF-CEM leukemia = tested on: CCRF-CEM leukemia
DU-145 prostate = tested on: DU-145 prostate
HCT-15 colon = tested on: HCT-15 colon
HOP-92 NSCLC = tested on: HOP-92 NSCLC
MDA-MB-231 breast = tested on: MDA-MB-231 breast
NCI-H23 lung = tested on: NCI-H23 lung
NCI-H460 lung = tested on: NCI-H460 lung
OVCAR-5 ovarian = tested on: OVCAR-5 ovarian
SF-295 CNS = tested on: SF-295 CNS
SK-MEL-28 melanoma = tested on: SK-MEL-28 melanoma
SW-620 colon = tested on: SW-620 colon
T-47D breast = tested on: T-47D breast
TK-10 renal = tested on: TK-10 renal
UACC-62 melanoma = tested on: UACC-62 melanoma
MALME-3M melanoma = tested on: MALME-3M melanoma

Row | Structure (SMILES) | TGI (CCRF-CEM leukemia) [µM] | TGI (DU-145 prostate) [µM] | TGI (HCT-15 colon) [µM] | TGI (HOP-92 NSCLC) [µM] | TGI (MDA-MB-231 breast) [µM] | TGI (NCI-H23 lung) [µM] | TGI (NCI-H460 lung) [µM] | TGI (OVCAR-5 ovarian) [µM] | TGI (SF-295 CNS) [µM] | TGI (SK-MEL-28 melanoma) [µM] | TGI (SW-620 colon) [µM] | TGI (T-47D breast) [µM] | TGI (TK-10 renal) [µM] | TGI (UACC-62 melanoma) [µM] | TGI (MALME-3M melanoma) [µM]
1 | O=C(c1ccccc1)N1CCC(CC2(c3cc4ccccc4[nH]3)OCCO2)CC1 | > 100 | > 100 | > 100 | 93 | > 100 | > 100 | > 100 | > 100 | > 100 | 37.4 | > 100 | > 100 | > 100 | 39.4 | –
2 | COc1ccc(OC)c2c1C=CC(Br)=CC2 | > 1 | > 1 | 0.485 | 0.463 | 0.958 | > 1 | > 1 | – | 0.373 | > 1 | > 1 | 0.681 | > 1 | 0.345 | 0.312
3 | CC(Nc1ccc(Cl)c(Cl)c1)c1ccncc1 (stereo not drawn) | > 100 | 89.7 | > 100 | 54.8 | 45.1 | > 100 | 44 | – | 64.2 | > 100 | 78.5 | > 100 | > 100 | – | > 100
4 | CCOC(=O)NC(Nc1ccc(F)cc1)(C(=O)OCC)C(F)(F)F (stereo not drawn) | > 23.9 | > 100 | > 100 | > 100 | > 100 | > 100 | > 100 | > 100 | > 100 | > 100 | > 100 | > 100 | > 100 | > 100 | > 100
5 | O=C1CC(CC(=O)c2ccc(Br)cc2)C(=O)/C1=C(/O)c1ccc(Br)cc1 (stereo not drawn) | > 100 | > 100 | > 100 | > 100 | > 100 | > 100 | > 100 | > 100 | > 100 | > 100 | > 100 | > 100 | > 100 | > 100 | > 100
6 | CCOP(=O)(OCC)C(C(=O)OC)C(=O)C(=O)Nc1cccc(O)c1 (stereo not drawn) | > 100 | > 100 | > 100 | > 100 | > 100 | > 100 | > 100 | > 100 | > 100 | > 100 | > 100 | > 100 | > 100 | > 100 | > 100
7 | O=C1Nc2nccnc2C(=O)N2CCC[C@@H]12 | > 100 | > 100 | > 100 | > 100 | > 100 | > 100 | > 100 | > 100 | > 100 | > 100 | > 100 | > 100 | > 100 | > 100 | > 100
8 | CCCSc1ccc2[nH]c(N3C(=O)/C(=C/c4ccc(SC)cc4)N=C3c3ccccc3)cc2c1 | > 45.8 | > 50 | > 50 | > 50 | > 50 | > 50 | > 50 | > 50 | > 50 | > 50 | > 50 | > 50 | > 50 | > 50 | > 50
9 | CC(C)(Cl)C(Br)CCC(Br)(CCl)C(Cl)CBr (stereo not drawn) | > 10 | > 10 | > 10 | > 10 | > 10 | > 10 | > 10 | > 10 | > 10 | > 10 | > 10 | > 10 | > 10 | – | > 10
10 | CCC(C)[C@@H](Nc1c(O)c2c(c(O)c1Cl)C(=O)C=CC2=O)C(=O)OC (stereo partly drawn) | 4.98 | > 10 | > 10 | > 10 | 7.81 | 5.7 | > 10 | > 10 | > 10 | – | > 10 | > 10 | > 10 | > 10 | 5.14
11 | COc1cccc(C2c3cc4c(cc3OC(NNS(=O)(=O)c3ccc(C)cc3)C2C)OCO4)c1OC (stereo not drawn) | 5.31 | 7.61 | 9.82 | 7.18 | 27.6 | > 100 | 8.64 | 74.2 | > 100 | > 100 | > 100 | > 100 | 49.8 | 33.2 | 49.9
12 | CC(=O)c1ccc2c(c1)CC1(C2)Cc2cc3c(c(C(=O)O)c2C1)CCC3 (stereo not drawn) | > 100 | > 100 | > 100 | > 100 | > 100 | > 100 | > 100 | > 100 | > 100 | > 100 | > 100 | > 100 | > 100 | > 100 | > 100
13 | CC1=C(O)c2ccccc2C(=O)C1=O | > 100 | > 100 | > 100 | > 100 | > 100 | > 100 | > 100 | > 100 | > 100 | > 100 | > 100 | > 100 | > 100 | > 100 | > 100
14 | [B-][P+](CC[P+]1([B-])[C@@H](C)[C@@H](O)[C@H](O)[C@@H]1C)(c1ccccc1)c1ccccc1OC (stereo partly drawn) | 46.4 | 33.7 | 33.3 | 33 | 29.5 | 31.3 | 32 | 32 | 29.4 | 32.7 | 31.9 | 37.3 | 32.5 | 28.1 | 24.4
15 | O=C1CCc2ccc(O)c(c2)Oc2ccc(cc2)C(Sc2ccccc2)CCO1 (stereo not drawn) | > 100 | 46.6 | 29.9 | 22.2 | 19.2 | 27.3 | – | 35.3 | 38.2 | 31.6 | 34.9 | 54.1 | 31.6 | 32.5 | 27.9
